Results as given in patent US20230172885A1, “THIOL-CONTAINING COMPOUNDS FOR USE IN TREATING CORONAVIRUS” (priority 2020, published 2023).

Molecular target: RBD^N501Y binding to ACE2 (Severe acute respiratory syndrome coronavirus 2, UniProt P0DTC2, N501Y)
Parameters: species or system SARS-CoV-2

SMILES | inhibition of binding of RBD^N501Y to ACE2
NCCS [Cysteamine] | potently inhibited
O[C@@H]1[C@@H](O)[C@@H](O[C@H]2O[C@H](CS)[C@@H](O)[C@H](O)[C@H]2O)O[C@H](CS)[C@H]1O [MUC-31, 6,6′-dithiotrehalose] | potently inhibited
